Molecules are shown by their SMILES.

This assay concerns the target T1, IKr (rapidly activating delayed rectifier K+ current) (Cavia porcellus, UniProt O08703).
T1 construct: Guinea pig ventricular myocytes were isolated; endogenous in cells; host or cells: isolated guinea pig ventricular myocytes
T1 sequence (O08703 1-1294): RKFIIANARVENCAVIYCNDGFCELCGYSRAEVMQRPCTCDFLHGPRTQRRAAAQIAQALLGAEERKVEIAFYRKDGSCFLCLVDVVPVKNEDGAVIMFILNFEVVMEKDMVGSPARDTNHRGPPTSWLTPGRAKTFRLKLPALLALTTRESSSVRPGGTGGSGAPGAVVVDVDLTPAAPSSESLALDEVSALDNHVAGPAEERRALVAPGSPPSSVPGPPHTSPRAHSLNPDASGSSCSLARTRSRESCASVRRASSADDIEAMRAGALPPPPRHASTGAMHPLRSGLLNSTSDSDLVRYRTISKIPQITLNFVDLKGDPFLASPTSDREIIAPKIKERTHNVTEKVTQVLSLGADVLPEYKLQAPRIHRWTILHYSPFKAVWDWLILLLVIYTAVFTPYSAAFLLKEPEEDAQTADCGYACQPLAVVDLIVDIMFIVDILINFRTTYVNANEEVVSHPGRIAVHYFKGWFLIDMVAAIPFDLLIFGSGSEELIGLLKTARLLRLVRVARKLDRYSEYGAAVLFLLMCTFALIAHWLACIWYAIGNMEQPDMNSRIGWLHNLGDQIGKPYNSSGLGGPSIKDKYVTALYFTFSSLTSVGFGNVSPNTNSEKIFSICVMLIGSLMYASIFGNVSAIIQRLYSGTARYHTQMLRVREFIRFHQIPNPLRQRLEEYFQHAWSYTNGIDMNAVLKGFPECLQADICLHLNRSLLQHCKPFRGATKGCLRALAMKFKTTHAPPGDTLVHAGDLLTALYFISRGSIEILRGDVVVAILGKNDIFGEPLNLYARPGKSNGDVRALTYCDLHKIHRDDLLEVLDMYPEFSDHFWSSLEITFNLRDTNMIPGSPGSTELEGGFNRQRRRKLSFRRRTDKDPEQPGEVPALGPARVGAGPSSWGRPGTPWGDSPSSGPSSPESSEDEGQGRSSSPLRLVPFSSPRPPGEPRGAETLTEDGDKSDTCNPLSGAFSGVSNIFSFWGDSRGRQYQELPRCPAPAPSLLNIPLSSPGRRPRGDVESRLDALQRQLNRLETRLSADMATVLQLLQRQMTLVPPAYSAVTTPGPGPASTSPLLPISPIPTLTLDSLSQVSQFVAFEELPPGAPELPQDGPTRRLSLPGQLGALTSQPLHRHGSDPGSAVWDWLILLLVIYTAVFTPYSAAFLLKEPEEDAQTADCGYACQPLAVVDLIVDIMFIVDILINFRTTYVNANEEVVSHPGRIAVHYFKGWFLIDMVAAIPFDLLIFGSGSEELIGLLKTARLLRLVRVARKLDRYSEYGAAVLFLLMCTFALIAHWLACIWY
Briefly: voltage clamp measurement of IKr block in isolated guinea pig ventricular myocytes. The format is cell-based. The procedure: Guinea pig ventricular myocytes were isolated using a modification of the procedure described by Mitra R and Morad M., "A Uniform Enzymatic Method for Dissociation of Myocytes from Hearts and Stomachs of Nertilorates", Am. J. Physiol. […] Excised hearts were perfused through the aorta (retrograde fashion) at a rate of 10 ml/min with oxygenated, warmed (37° C.) solutions described below. […] The head was then perfused with the same nominally Ca^2+ -free solution containing 150 units/ml Type II collagenase (Worthington) and 0.5 units/ml Type XIV protease (Sigma) for 8 minutes. This perfusate was followed by a Tyrode's solution containing 0.2 mM CaCl2 (without enzymes) for 5 minutes. The digested ventricles were cut into small pieces and gently shaken until cells were visibly dispersed. The cells were stored at room temperature until use, within 8 hours after isolation.
The suction microelectrode technique described by Giles, W. R. and Shibata, E. F., "Voltage clamp of bull-frog cardiac pacemaker cells: a quantitative, analysis of potassium currents". J. Physiol. […] Microelectrodes were made by using a two stage puller from square bore (1.0 mm o.d.) borosilicate capillary tubing. […] After establishing whole-cell recording mode, negative pressure was maintained on the pipette using a 1 ml gas-tight syringe attached via air tight tubing to the suction port of the microelectrode holder. This minimized dialysis of the cell with the pipette solution.
To record K^+ currents, the cells were bathed in a Ca^2+ -free Tyrode's :solution containing […] nisoldipine. […] A List EPC-7 clamp amplifier was used to voltage clamp the isolated cells. […] A variety of voltage pulse protocols were used to measure Ca^2+ current and three types of K^+ currents: inward rectifier (IK1), rapidly activating delayed rectifier (IKr) and the slowly activating delayed rectifier (IKs). Sanguinetti M. C. and Jurkiewicz, N. K., "Two components of cardiac delayed rectifier K^+ current: Differential sensitivity to block by Class III antiarrhythmic agents". […] Data was analyzed as % block from control membrane currents.
Nisoldipins was prepared as a 4 mM stock solution in polyethylne glycol 200. Compounds tested in this series were prepared as 10 mM stock solutions in polyethylene glycol 400 or dimethyl sulfoxide.

By IC50 is commonly meant the concentration that gives 50% inhibition. A low value points to inhibition by little substance. `Cc1cccc(NC(=O)N[C@@H]2N=C(c3ccccc3)c3ccccc3N(C)C2=O)c1` [Compound 4, (R)-N-(2,3-dihydro-1-methyl-2-oxo-5-phenyl-1H-1,4-benzodiazepin-3-yl)-N'-(3-methylphenyl)urea] had an IC50 of approximately 5 µM. Also, the “effect on IKr” value (1 μM) is reported as “Little or no effect”.

Source of the values: patent US5428031A, “Methods of treating cardiac arrhythmia” (priority 1993, dated 1995).
